What was measured:
UCD patients [1] = test: Duration of HAC during the 12-month GPB studies; type: in vivo, human
Experimental: The relationship between ammonia exposure and duration of HAC was analyzed. Ammonia exposure was characterized three different ways: peak ammonia during crisis, total ammonia during crisis and ammonia at time of admission. The majority of the HACs typically lasted a day, and a steep drop off in the distribution was seen after 2 days. (Note: two subjects were excluded with 20 days of duration of HAC in this analyses).

UCD patients [2] = test: Occurrence of hyperammonemic crises (HAC): 12 months pre-enrollment on NaPBA versus 12-month GPB treatment (studies HPN-100-005, -007, -012); type: in vivo, human
Description: Data from four short-term switchover (SO) studies and three 12-month safety extension (SE) studies in adult and pediatric UCD patients were included in the analyses; all have been previously described. […] Most patients completing these protocols plus additional patients (a total of 100 of whom 49 were pediatric) were enrolled into safety extension studies and received GPB for 12 months (Diaz 2013), (Mokhatarani 2013), (Berry 2014).
All protocols and informed consents were reviewed and approved by the Investigational Review Board of each participating institution prior to initiation. […] In all studies, patients received GPB three times daily (or more frequently in small children to match their prior NaPBA schedule) at a daily dose equivalent to their previously prescribed NaPBA dose. […] Fasting ammonia and glutamine levels were analyzed as a predictor of HACs during long-term treatment.
(§1) During the 12 month studies, blood samples for ammonia and glutamine analyses were collected monthly and information on HACs was recorded. […] Ammonia and glutamine concentrations were measured by an accredited hospital laboratory at each study site and ammonia values were normalized to a standard range of 9 to 35 μmol/L.
Data for 100 UCD subjects from three clinical trials (HPN-100-005, HPN-100-007, and HPN-100-012) were analyzed to evaluate the correlation between fasting ammonia levels and HAC (Table 1). Patients were treated for 12 months with GPB during the study. There was an almost equal split in the number of subjects who were adults (51%) and children (49%), defined as age<18 years at the time of enrollment. In this population, 30 patients had experienced a total of 54 HACs in the 12 months prior to the study and 19 patients experienced a total of 27 HACs during the study (Table 1). Baseline ammonia was defined as the subject's fasting ammonia level taken either at month zero or at the screening visit depending on which study the subject was enrolled in and whether the subject was enrolled in previous studies.

glutamine = test: Glutamine levels and exposure during 12-month GPB treatment; type: in vivo, human
Experimental: as §1
The relationship between glutamine levels and ammonia categories was also analyzed. […] Glutamine levels were analyzed over the 12 month study period in patients treated for 12 months with GPB. Monthly glutamine levels were generally higher in patients in the higher baseline ammonia ULN groups and, by three months of treatment, had decreased in the patients with the highest baseline glutamine at baseline (FIG. 14A).

venous ammonia = conditions: study HPN-100-006 (Diaz 2013); cited from earlier work
blood ammonia = test: Total ammonia exposure (TNAUC of monthly ammonia) during 12-month GPB treatment; type: in vivo, human; set-up: TNAUC ammonia, mean: unit not given beside the values; conditions: for TNAUC ammonia, mean: patients with HAC, N=19; for TNAUC ammonia, mean (SD): patients with no HAC, N=81
Experimental: as §1
The relationship between total ammonia exposure over time and the risk of HAC occurrence was explored by calculating time normalized area under the curve (TNAUC12months) for ammonia for patients with and without an HAC during the 12-month treatment with GPB (Table 13). The AUC for ammonia, measured monthly, was calculated for each patient using the trapezoid rule over the course of the 12 month study. To normalize the AUC, TNAUCxmonth, AUC was divided by the final study month of an ammonia assessment.

[3] = all patients N=100, pre-study (NaPBA) or during study (GPB)
[4] = study 005, N=17, pre-study (NaPBA) or during study (GPB)
[5] = study 007, N=60, pre-study (NaPBA) or during study (GPB)
[6] = study 012, N=23, pre-study (NaPBA) or during study (GPB)
[7] = subjects ages 6 years or higher, total N=77, pre-study (NaPBA) or study (GPB)

O=C(CCCc1ccccc1)OCC(COC(=O)CCCc1ccccc1)OC(=O)CCCc1ccccc1 [GPB, glycerol phenylbutyrate]
Duration of HAC that lasted less than 2 days (UCD patients [1]; overall): about 64% | Duration of HA crisis 1-1.99 days (UCD patients [1]; study 005): 0.0% | Duration of HA crisis 2-2.99 days (UCD patients [1]; study 005): 50.0% | Duration of HA crisis <1 days (UCD patients [1]; study 005): 50.0% | Duration of HA crisis >3 days (UCD patients [1]; study 005): 0.0% | Duration of HA crisis, median (UCD patients [1]; study 005): 1.27 days | Duration of HA crisis, mean (UCD patients [1]; study 005, N=2): 1.27 days | Duration of HA crisis 1-1.99 days (UCD patients [1]; study 007): 16.7% | Duration of HA crisis 2-2.99 days (UCD patients [1]; study 007): 33.3% | Duration of HA crisis <1 days (UCD patients [1]; study 007): 41.7% | Duration of HA crisis >3 days (UCD patients [1]; study 007): 8.3% | Duration of HA crisis, median (UCD patients [1]; study 007): 1.36 days | Duration of HA crisis, mean (UCD patients [1]; study 007, N=12): 1.95 days | Duration of HA crisis 1-1.99 days (UCD patients [1]; study 012): 18.2% | Duration of HA crisis 2-2.99 days (UCD patients [1]; study 012): 18.2% | Duration of HA crisis <1 days (UCD patients [1]; study 012): 54.6% | Duration of HA crisis >3 days (UCD patients [1]; study 012): 9.1% | Duration of HA crisis, median (UCD patients [1]; study 012): 0.92 days | Duration of HA crisis, mean (UCD patients [1]; study 012, N=11): 1.53 days | Duration of HA crisis 1-1.99 days (UCD patients [1]; total, N=25): 16.0% | Duration of HA crisis 2-2.99 days (UCD patients [1]; total, N=25): 28.0% | Duration of HA crisis >3 days (UCD patients [1]; total, N=25): 8.0% | Duration of HA crisis, mean (UCD patients [1]; total, N=25): 1.71 days | Duration of HA crisis, median (UCD patients [1]; total, N=25): 1.00 days | Lower HAC incidence rate during study (GPB) than pre-enrollment (UCD patients [2]; 0.288 versus […]): roughly 50% | Proportion of patients who experienced an HAC (UCD patients [2]; Group 1 study sites (33 patients, >50% with baseline ammonia <0.5 ULN)): 12% | Proportion of patients who experienced an HAC (UCD patients [2]; Group 2 study sites (29 patients)): 21% | Proportion of patients who experienced an HAC (UCD patients [2]; Group 3 study sites (38 patients)): 24% | # HAC (UCD patients [2]; Month 0-3 of GPB treatment): 5 | % of Total HAC (UCD patients [2]; Month 0-3 of GPB treatment): (18.5%) | HAC Incidence Rate/month (UCD patients [2]; Month 0-3 of GPB treatment): 0.0170 | # HAC (UCD patients [2]; Month 0-6 of GPB treatment): 13 | % of Total HAC (UCD patients [2]; Month 0-6 of GPB treatment): (48.1%) | HAC Incidence Rate/month (UCD patients [2]; Month 0-6 of GPB treatment): 0.0224 | # HAC (UCD patients [2]; Month 0-9 of GPB treatment): 20 | % of Total HAC (UCD patients [2]; Month 0-9 of GPB treatment): (74.1%) | HAC Incidence Rate/month (UCD patients [2]; Month 0-9 of GPB treatment): 0.0234 | # HAC (UCD patients [2]; Month 0-12 of GPB treatment): 27 | % of Total HAC (UCD patients [2]; Month 0-12 of GPB treatment): (100%) | HAC Incidence Rate/month (UCD patients [2]; Month 0-12 of GPB treatment): 0.0240 | Proportion of patients who experienced an HAC during the study (UCD patients [2]; OTC deficiency (n=69)): 18.8% | 12-month incidence of HAC (UCD patients [2]; adult (≧18 years)): 0.371 | Proportion of patients who experienced an HAC (UCD patients [2]; adult (≧18 years)): 13.7% | Proportion of patients with no HAC (UCD patients [2]; adult ≧18 years, during study): 86.3% | Subjects who had not experienced an HAC (Kaplan-Meier, HAC-free survival) (UCD patients [2]; after about one year of follow-up during treatment with GPB): 80% | Proportion of patients who experienced an HAC (UCD patients [2]; age 6-11 years, during study): 23.5% | Proportion of patients with no HAC (UCD patients [2]; age 6-11 years, during study): 76.5% | Proportion of patients who experienced an HAC (UCD patients [2]; age 12-17 years, during study): 11.1% | Proportion of patients with no HAC (UCD patients [2]; age 12-17 years, during study): 88.9% | Proportion of patients who experienced an HAC (UCD patients [2]; age <6 years, during study): 30.4% | Proportion of patients with no HAC (UCD patients [2]; age <6 years, during study): 69.6% | # of HA events (total no. of HAC) (UCD patients [2]; all patients N=100, 12 months pre-study (NaPBA) or during study (GPB)): 27 | N with ≧1 HA events (number of patients with HAC) (UCD patients [2]; [3]): 19 | Proportion of patients who experienced an HAC (UCD patients [2]; [3]): 19.0% | Proportion of patients with no HAC (UCD patients [2]; all patients, during study): 81.0% | Proportion of patients with no HAC (UCD patients [2]; baseline ammonia 0-<0.5 ULN, during study): 89.7% | Proportion of patients with no HAC (UCD patients [2]; baseline ammonia 0.5-<1.0 ULN, during study): 85.3% | Proportion of patients with no HAC (UCD patients [2]; baseline ammonia ≧1 ULN, during study): 63.0% | 12-month incidence of HAC (UCD patients [2]; female): 0.314 | Proportion of patients who experienced an HAC (UCD patients [2]; female): 16.4% | Proportion of patients with no HAC (UCD patients [2]; female, during study): 83.6% | 12-month incidence of HAC (UCD patients [2]; male): 0.275 | Proportion of patients who experienced an HAC (UCD patients [2]; male): 24.2% | Proportion of patients with no HAC (UCD patients [2]; male, during study): 75.8% | Proportion of patients who experienced an HAC during the study (UCD patients [2]; non-OTC deficiencies): 19.4% | 12-month incidence of HAC (UCD patients [2]; non-white): 0.248 | Proportion of patients who experienced an HAC (UCD patients [2]; non-white): 21.1% | Proportion of patients with no HAC (UCD patients [2]; non-white, during study): 78.9% | 12-month incidence of HAC (UCD patients [2]; pediatric (<18 years)): 0.209 | Proportion of patients who experienced an HAC (UCD patients [2]; pediatric (<18 years)): 24.5% | Proportion of patients with no HAC (UCD patients [2]; pediatric <18 years, during study): 75.5% | # of HA events (UCD patients [2]; [4]): 3 | N with ≧1 HA events (UCD patients [2]; [4]): 3 | # of HA events (UCD patients [2]; [5]): 12 | N with ≧1 HA events (UCD patients [2]; [5]): 9 | # of HA events (UCD patients [2]; [6]): 12 | N with ≧1 HA events (UCD patients [2]; [6]): 7 | # of HACs (UCD patients [2]; [7]): 15 | Subjects with 1 or more HACs (UCD patients [2]; [7]): 12 | 12-month incidence of HAC (UCD patients [2]; white): 0.296 | Proportion of patients who experienced an HAC (UCD patients [2]; white): 18.5% | Proportion of patients with no HAC (UCD patients [2]; white, during study): 81.5% | Change of glutamine levels during GPB treatment (glutamine; patients with the highest baseline glutamine, by three months of treatment): decreased | Total glutamine exposure, TNAUC12month (glutamine; subjects with an HAC during the study): 720.9 μmol/L*m | Total glutamine exposure, TNAUC12month (glutamine; subjects without an HAC during the study): 699.4 μmol/L*m | Ammonia control of GPB versus NaPBA as assessed by venous ammonia (venous ammonia): non-inferiority | TNAUC ammonia, mean (blood ammonia; Month 0-3): 33.3 | TNAUC ammonia, mean (SD) (blood ammonia; Month 0-3): 23.5 (13.62) | TNAUC ammonia, mean (blood ammonia; Month 0-6): 33.0 | TNAUC ammonia, mean (SD) (blood ammonia; Month 0-6): 24.0 (13.85) | TNAUC ammonia, mean (blood ammonia; Month 0-9): 33.4 | TNAUC ammonia, mean (SD) (blood ammonia; Month 0-9): 23.7 (12.56) | TNAUC ammonia, mean (blood ammonia; Month 0-12): 35.0 | TNAUC ammonia, mean (SD) (blood ammonia; Month 0-12): 23.6 (11.94)

— patent US20170087113A1, “METHODS FOR TREATING UREA CYCLE DISORDERS TO PREVENT HYPERAMMONEMIC CRISES BY CONTROLLING BLOOD AMMONIA LEVELS” (HORIZON THERAPEUTICS, LLC, priority 2014, published 2017)
